Reference: patent publication US20140024653A1, “COMPOSITIONS AND METHODS FOR TREATING CANCER USING PI3K INHIBITOR AND MEK INHIBITOR” (priority 2011, published 2014)

How the values were obtained:
[1] = tested on: human primary colon tumors CR-LRB-013P; assay: antitumor activity against subcutaneous CR-LRB-013P xenografts; assay type: in vivo; settings: for tolerability: as single agents or used in combination
Protocol: The human primary colon carcinoma CR-LRB-013P tumor model was established by implanting (SC) small tumor fragments and was maintained in SCID female mice using serial passages.
Treatments were administered on measurable tumors. […] Mice were checked daily, and adverse clinical reactions noted.
Animal body weights included the tumor weight.
The primary efficacy end points are ΔT/ΔC, percent median regression, partial and complete regressions (PR and CR). Statistical analyses were performed on SAS system release 8.2 for SUN4 via Everstat V5 software and SAS 9.2 software. A probability less than 5% (p<0.05) was considered as significant.

90 non-kinase targets = settings: tested at 10 μM; cited from earlier work
[2] = mice and rats; cited from earlier work
[3] = tested on: HCT116 tumor vascular permeability; assay: tumor vascular permeability, Evans Blue extravasation / Dextran-Fitc; assay type: in vivo, SCID mice; settings: (1) 10 mg/kg oral daily day 11 to day 13
Protocol: HCT116 tumor cells were implanted subcutaneously in the intra-scapular region in SCID mice. […] Each agent was given by oral route on a daily schedule. Tumor growth was monitored throughout the experiment by callipering the tumors. To quantify tumor vascular permeability, tumors were excised under ketamine/Xylazine (120/6 mg/kg ip) anesthesia at day 13, 4 hours post last treatment, 30 min after 0.5% Evans Blue iv injection, and 2 min post Dextran-Fitc 100 mg/kg iv injection. Tumors were then snap frozen, and 25 μm sections obtained for fluorescence quantification. Tumors sections were imaged with Icyte at 488 nm for vascular Dextran-Fitc determination and at 633 nm for Evans-Blue extravasation determination. Respective fluorescence were quantified as the sum of integral phantoms of fluorescence intensity and expressed as the mean ratio of Evans-Blue signal/Dextran-Fitc Signal.

COLO678 = assay: SRB cell growth assay, 72 h; assay type: cell-based; settings: Homo sapiens
Protocol: (§1) Cell growth and treatment were performed in 96-well microtitre plates CELLSTAR® (Greiner Bio-One, Germany). Cells harvested from exponential phase cultures by trypsinization were plated in 150 μl of media at optimal seeding densities. The optimal seeding densities for each cell line were determined to ensure exponential growth for the duration of the experiment. All cells growing without anticancer agents were sub-confluent by the end of the treatment as determined by visual inspection.
(§2) 150 μl of cells, after a 24-hour pre-growth period, were treated by mixing with 50 μl of the compound containing media (resulting in a final DMSO concentration of 0.1%). The cells were allowed to grow at 37° C. for 72 hours. In addition, all experiments contained a few plates with cells that were processed for measurement immediately after the 24 hours recovery period. These plates contained information about the cell number that existed before treatment, at time zero, and served to calculate the cytotoxicity.
(§3) After treatment, cells were precipitated by addition of 10% TCA. Prior to fixation, the media was aspirated as described. After an hour of incubation at 4° C., the plates were washed two times with 400 μl of deionized water. Cells were then stained with 100 μl of a 0.08% wt/v SRB. The plates were allowed to sit for at least 30 min. and washed six times with 1% acetic acid to remove unbound stain. The plates were left to dry at room temperature and bound SRB was solubilized with 100 μl of 10 mM Tris base. Measurement of optical density was performed at 560 nm on a Victor 2 plate reader (Perkin Elmer, Germany). The SRB values for A375 and H460 cell lines were near to saturation (2.5 OD units) due to the high protein content of these cells, but not cell confluence. The measurements for these cells were performed at 520 nm instead of 560 nm.
(§4) Using these measurements, cellular responses can be calculated for incomplete inhibition of cell growth (GI), complete inhibition of cell growth (T GI) and net loss of cells (LC) due to compound activity. […] This is the drug concentration causing a 50% reduction compared to the net protein increase in control cells during the drug incubation period. In other words, GI50 is IC50 corrected for time zero. Similar to IC90, calculated GI90 values are also reported for all compounds tested. TGI was calculated from Ti=Tz. […] It was calculated as 100×[(Ti−Tz)/Tz]=−50. However, due to 72 hours treatment, low cell seeding density was required and LC50 could rarely be achieved.

[4] = tested on: human pancreatic MiaPaCa-2; assay: antitumor activity against subcutaneous MiaPaCa-2 xenografts; assay type: in vivo, nude mice; settings: 21 days
Protocol: The human pancreatic cancer cell line MiaPaCa-2 (American Type Culture Collection, Manassas Va.), was cultured in MEM medium containing 10% fetal bovine serum, 1% essential amino acid, 1% sodium pyruvate (Life Technologies, Carlsbad, Calif.). […] Cells were re-suspended in PBS (Life Technologies, Carlsbad, Calif.) and then mixed 1:1 with Matrigel (BD Biosciences, San Jose, Calif.). Cells were stored at 4° C. until implantation. MiaPaCa-2 cells (10×10^6 in a 200 μl PBS:Matrigel (1:1) suspension) were subcutaneously injected into the right flank area of female nude (Crl:NU-Foxn1nu) mice (6-8 weeks old, Charles River Laboratories, Wilmington, Mass.). All mice in this study were used according to the guidelines approved by the EMD-Serono Institutional Care and Animal Use Committee (IACUC), #07-003. Developing tumors located in the right flank area of female nude mice were measured over time with digital calipers. […] The remaining tumor-bearing mice were randomized into seven experimental groups (n=9), so that each group had the same mean tumor volume. […] The treatments began on the seventh day following implantation of the Miapaca-2 cells, which was designated as Day 0 for data evaluation purposes. […] Body weights and tumor volumes were assessed twice per week post treatment initiation. […] Efficacy was determined by analyzing tumor volumes and the percent ΔT/ΔC (% ΔT/ΔC). Tumor volume was determined by using the tumor length (1) and width (w) measurements and calculating the volume with the equation 1*w^2/2. The length was measured along the longest axis of the tumor and width was measured perpendicular to that length. The mean percent of actual tumor growth inhibited by the treatments was calculated as follows: [% ΔT/ΔC=(([…]))×100%], where TV=tumor volume, f=final, i=initial and Ctrl=control group. Tolerability was assessed by regarding percent body weight difference during the treatment period. Percent body weight difference was calculated as follows: [% Body weight difference=(BWc-BWi)/BWi×100%], where BW=body weight, c=current, i=initial.

JEG3 = assay: SRB cell growth assay, 72 h; assay type: cell-based, human; settings: single agent, up to 50 μM
Protocol: as §1, §2, §3, §4

HEK293 = assay: SRB cell growth assay, 72 h; assay type: cell-based, human; settings: single agent, up to 50 μM
Protocol: as §1, §2, §3, §4

[5] = chemical stability of dosing stock solution; assay type: physicochemical; settings: in 1N HCl and water for injection, pH 3; in the dark at 4° C.
Protocol: Compound (2a) formulation was prepared in water for injection. The stock solution was chemically stable 7 days in the dark at 4° C. […] The pH of the final solution was 3. […]

[6] = tested on: PC-3, U87-MG, A2058, WM-266-4 and MCF7 xenografts; settings: oral administration alone; PTEN-deficient PC-3, U87-MG, A2058, WM-266-4 or PIK3CA mutated MCF7 xenografts; cited from earlier work
[7] = (1) 20 mg/kg PO daily days 33-50
[8] = (2b) 20 mg/kg PO daily days 33-50

## O=C(NC[C@H](O)CO)c1ccncc1Nc1ccc(I)cc1F [Compound (1), N—((S)-2,3-dihydroxypropyl)-3-(2-fluoro-4-iodo-phenylamino)isonicotinamide]
[1]; [7]
  Average body weight change in % per mouse at nadir: −4.5 (50) %
  Drug death: 0/7
  Median ΔT/ΔC in % day 50: 30%
  Regressions Complete: 0/7
  Regressions Partial: 0/7
[1]
  tolerability: tolerated, inducing some BWL but not reaching toxicity
90 non-kinase targets
  activity against 90 non-kinase targets: no activity
[2]
  clearance: 0.9 to 2.6 L/h/kg
  half-life: 2.2 to 4.7 h
  oral bioavailability: 52-57%
[3]
  decrease of the Evans-Blue/Dextran-Fitc ratio compared to control: −9%
COLO678; COLO-678, most sensitive cell lines
  IC50: 4.8 to 8 nM
[4]; AS703026 5 mg/kg po QD, 5 mg/kg
  % ΔT/ΔC: 56.2%
JEG3
  activity (cell growth inhibition): minimal activity
HEK293
  activity (cell growth inhibition): minimal activity

## CCn1c(=O)c(-c2ccn[nH]2)cc2c(C)nc(N)nc21 [Compound (2b), 2-amino-8-ethyl-4-methyl-6-(1H-pyrazol-5-yl)pyrido[2,3-d]pyrimidin-7(8H)-one]
[1]; [8]
  Average body weight change in % per mouse at nadir: −5.2 (50) %
  Drug death: 0/7
  Regressions Complete: 0/7
  Regressions Partial: 0/7
[1]
  tolerability: tolerated, inducing some BWL but not reaching toxicity
[5]
  stock solution chemically stable: 7 days
COLO678; COLO-678, non-sensitive, z score >1.5
  GI50: > 4000 nM
[6]
  tumor growth: inhibits tumor growth
[4]; XL-765 30 mg/kg po QD, 30 mg/kg
  % ΔT/ΔC: 77.0%
